Experimental data published in ChEMBL document CHEMBL5608186, “Design, synthesis and structure-activity relationships of novel non-ketolides: 9-Oxime clarithromycin featured with seven-to thirteen-atom-length diamine linkers at 3-OH” (Eur J Med Chem, 2024).
≈ marks a conversion by molar mass, not a printed value.

Key:
Format in all cases: functional
Haemophilus influenzae [1] = assay: Bactericidal activity against Haemophilus influenzae ATCC 49247 incubated for 16 to 20 hrs by CLSI based broth microdilution method; conditions: time 16-20 hrs
Streptococcus pyogenes [2] = assay: Bactericidal activity against Streptococcus pyogenes 01-968 harboring i-ermB gene incubated for 16 to 20 hrs by CLSI based broth microdilution method; conditions: time 16-20 hrs
Streptococcus pyogenes [3] = assay: Antibacterial activity against Streptococcus pyogenes 01-968 harboring i-ermB gene incubated for 16 to 20 hrs by CLSI based broth microdilution method; conditions: time 16-20 hrs
Staphylococcus aureus [4] = assay: Bactericidal activity against methicillin-resistant Staphylococcus aureus PU 32 harboring i-ermA gene incubated for 16 to 20 hrs by CLSI based broth microdilution method; conditions: time 16-20 hrs
Streptococcus pneumoniae [5] = assay: Bactericidal activity against Streptococcus pneumoniae PU 09 harboring mef gene incubated for 16 to 20 hrs by CLSI based broth microdilution method; conditions: time 16-20 hrs
Staphylococcus aureus [6] = assay: Selectivity ratio of MBC for methicillin-resistant Staphylococcus aureus PU 32 harboring i-ermA gene to MIC for methicillin-resistant Staphylococcus aureus PU 32 harboring i-ermA gene
Staphylococcus aureus [7] = assay: Bactericidal activity against methicillin-resistant Staphylococcus aureus PU 20 harboring c-ermA gene incubated for 16 to 20 hrs by CLSI based broth microdilution method; conditions: time 16-20 hrs
Streptococcus pneumoniae [8] = assay: Selectivity ratio of MBC for Streptococcus pneumoniae PU 09 harboring mef gene to MIC for Streptococcus pneumoniae PU 09 harboring mef gene
Streptococcus pyogenes [9] = assay: Selectivity ratio of MBC for Streptococcus pyogenes 01-968 harboring i-ermB gene to MIC for Streptococcus pyogenes 01-968 harboring i-ermB gene
Streptococcus pneumoniae [10] = assay: Bactericidal activity against Streptococcus pneumoniae ATCC 49619 incubated for 16 to 20 hrs by CLSI based broth microdilution method; conditions: time 16-20 hrs
Haemophilus influenzae [11] = assay: Selectivity ratio of MBC for Haemophilus influenzae ATCC 49247 to MIC for Haemophilus influenzae ATCC 49247
Staphylococcus aureus [12] = assay: Antibacterial activity against methicillin-resistant Staphylococcus aureus PU 20 harboring c-ermA gene incubated for 16 to 20 hrs by CLSI based broth microdilution method; conditions: time 16-20 hrs
Streptococcus pneumoniae [13] = assay: Selectivity ratio of MBC for Streptococcus pneumoniae ATCC 49619 to MIC for Streptococcus pneumoniae ATCC 49619
Streptococcus pneumoniae [14] = assay: Antibacterial activity against Streptococcus pneumoniae PU 09 harboring mef gene incubated for 16 to 20 hrs by CLSI based broth microdilution method; conditions: time 16-20 hrs
Streptococcus pneumoniae [15] = assay: Antibacterial activity against Streptococcus pneumoniae 07P390 harboring c-erm gene incubated for 16 to 20 hrs by CLSI based broth microdilution method; conditions: time 16-20 hrs
Haemophilus influenzae [16] = assay: Antibacterial activity against Haemophilus influenzae ATCC 49247 incubated for 16 to 20 hrs by CLSI based broth microdilution method; conditions: time 16-20 hrs
Streptococcus pneumoniae [17] = assay: Antibacterial activity against Streptococcus pneumoniae ATCC 49619 incubated for 16 to 20 hrs by CLSI based broth microdilution method; conditions: time 16-20 hrs
Staphylococcus aureus [18] = assay: Antibacterial activity against methicillin-resistant Staphylococcus aureus PU 32 harboring i-ermA gene incubated for 16 to 20 hrs by CLSI based broth microdilution method; conditions: time 16-20 hrs
Streptococcus pneumoniae [19] = assay: Selectivity ratio of MBC for Streptococcus pneumoniae 07P390 harboring c-erm gene to MIC for Streptococcus pneumoniae 07P390 harboring c-erm gene
Streptococcus pneumoniae [20] = assay: Bactericidal activity against Streptococcus pneumoniae 07P390 harboring c-erm gene incubated for 16 to 20 hrs by CLSI based broth microdilution method; conditions: time 16-20 hrs

Row | Structure (SMILES) | MBC (Haemophilus influenzae [1]) [µg/mL] | MBC (Streptococcus pyogenes [2]) [µg/mL] | MIC (Streptococcus pyogenes [3]) [µg/mL] | MBC (Staphylococcus aureus [4]) [µg/mL] | MBC (Streptococcus pneumoniae [5]) [µg/mL] | Selectivity ratio (Staphylococcus aureus [6]) | MBC (Staphylococcus aureus [7]) [µg/mL] | Selectivity ratio (Streptococcus pneumoniae [8]) | Selectivity ratio (Streptococcus pyogenes [9]) | MBC (Streptococcus pneumoniae [10]) [µg/mL] | Selectivity ratio (Haemophilus influenzae [11]) | MIC (Staphylococcus aureus [12]) [µg/mL] | Selectivity ratio (Streptococcus pneumoniae [13]) | MIC (Streptococcus pneumoniae [14]) [µg/mL] | MIC (Streptococcus pneumoniae [15]) [µg/mL] | MIC (Haemophilus influenzae [16]) [µg/mL] | MIC (Streptococcus pneumoniae [17]) [µg/mL] | MIC (Staphylococcus aureus [18]) [µg/mL] | Selectivity ratio (Streptococcus pneumoniae [19]) | MBC (Streptococcus pneumoniae [20]) [µg/mL]
1 | CC[C@H]1OC(=O)[C@H](C)[C@@H](OC(=O)CCN2CCN(c3cc4c(cc3F)c(=O)c(C(=O)O)cn4C3CC3)CC2)[C@H](C)[C@@H](O[C@@H]2O[C@H](C)C[C@H](N(C)C)[C@H]2O)[C@](C)(OC)C[C@@H](C)/C(=N\OC)[C@H](C)[C@H]2OC(=O)O[C@@]21C | 2 (≈ 1.94 µM) | 8 (≈ 7.77 µM) | 1 (≈ 0.971 µM) | > 256 | 2 (≈ 1.94 µM) | >4 | > 256 | 4 | 8 | 0.25 (≈ 0.243 µM) | 2 | 256 (≈ 248 µM) | 1 | 0.5 (≈ 0.485 µM) | > 32 | 1 (≈ 0.971 µM) | 0.25 (≈ 0.243 µM) | 64 (≈ 62.1 µM) | – | –
2 | CC[C@H]1OC(=O)[C@H](C)[C@@H](OC(=O)CCNCCCCNc2cc3c(cc2F)c(=O)c(C(=O)O)cn3C2CC2)[C@H](C)[C@@H](O[C@@H]2O[C@H](C)C[C@H](N(C)C)[C@H]2O)[C@](C)(OC)C[C@@H](C)/C(=N\OCC#Cc2ccc3c(c2)c(=O)c(C(N)=O)cn3CC)[C@H](C)[C@H]2OC(=O)O[C@@]21C | 8 (≈ 6.3 µM) | > 8 | 1 (≈ 0.787 µM) | > 256 | 0.25 (≈ 0.197 µM) | – | > 256 | 1 | >8 | 0.12 (≈ 0.0945 µM) | 1 | > 256 | 1 | 0.25 (≈ 0.197 µM) | 2 (≈ 1.57 µM) | 8 (≈ 6.3 µM) | 0.12 (≈ 0.0945 µM) | 128 (≈ 101 µM) | 4 | 8 (≈ 6.3 µM)
3 | CC[C@H]1OC(=O)[C@H](C)[C@@H](OC(=O)NCCCc2ccc3c(c2)c(=O)c(C(=O)O)cn3C2CC2)[C@H](C)[C@@H](O[C@@H]2O[C@H](C)C[C@H](N(C)C)[C@H]2O)[C@](C)(OC)C[C@@H](C)/C(=N\OC)[C@H](C)[C@H]2OC(=O)O[C@@]21C | – | – | – | – | – | >8 | – | 4 | 2 | – | 1 | – | 2 | – | > 32 | – | – | – | – | –
4 | C#CCO/N=C1\[C@H](C)C[C@@](C)(OC)[C@H](O[C@@H]2O[C@H](C)C[C@H](N(C)C)[C@H]2O)[C@@H](C)[C@H](OC(=O)CCN2CCN(c3cc4c(cc3F)c(=O)c(C(=O)O)cn4C3CC3)CC2)[C@@H](C)C(=O)O[C@H](CC)[C@@]2(C)OC(=O)O[C@@H]2[C@H]1C | 1 (≈ 0.949 µM) | 8 (≈ 7.59 µM) | 4 (≈ 3.79 µM) | > 256 | 2 (≈ 1.9 µM) | >4 | > 256 | 2 | 2 | 0.5 (≈ 0.474 µM) | 1 | 256 (≈ 243 µM) | 1 | 1 (≈ 0.949 µM) | 32 (≈ 30.4 µM) | 1 (≈ 0.949 µM) | 0.5 (≈ 0.474 µM) | 64 (≈ 60.7 µM) | – | > 32
5 | CC[C@H]1OC(=O)[C@H](C)[C@@H](OC(=O)CCN2CCN(c3cc4c(cc3F)c(=O)c(C(=O)O)cn4C3CC3)CC2)[C@H](C)[C@@H](O[C@@H]2O[C@H](C)C[C@H](N(C)C)[C@H]2O)[C@](C)(OC)C[C@@H](C)/C(=N\OCC#Cc2cncc(C(N)=O)c2)[C@H](C)[C@H]2OC(=O)O[C@@]21C | 8 (≈ 6.81 µM) | 1 (≈ 0.852 µM) | 0.5 (≈ 0.426 µM) | > 64 | 1 (≈ 0.852 µM) | >8 | – | 2 | 2 | 0.5 (≈ 0.426 µM) | 1 | > 256 | 2 | 0.5 (≈ 0.426 µM) | 4 (≈ 3.41 µM) | 8 (≈ 6.81 µM) | 0.25 (≈ 0.213 µM) | 8 (≈ 6.81 µM) | >8 | > 32
6 | CC[C@H]1OC(=O)[C@H](C)[C@@H](OC(=O)CCN2CCN(c3cc4c(cc3F)c(=O)c(C(N)=O)cn4C3CC3)CC2)[C@H](C)[C@@H](O[C@@H]2O[C@H](C)C[C@H](N(C)C)[C@H]2O)[C@](C)(OC)C[C@@H](C)/C(=N\OCC#Cc2cncc(C(=O)NC)c2)[C@H](C)[C@H]2OC(=O)O[C@@]21C | > 256 | > 256 | 32 (≈ 27 µM) | > 256 | 4 (≈ 3.37 µM) | – | > 256 | 4 | >8 | 1 (≈ 0.842 µM) | – | > 256 | 4 | 1 (≈ 0.842 µM) | 256 (≈ 216 µM) | > 256 | 0.25 (≈ 0.211 µM) | 256 (≈ 216 µM) | – | > 256
7 | CC[C@H]1OC(=O)[C@H](C)[C@@H](OC(=O)CCNCCCCCCCCNc2cc3c(=O)c(C(=O)O)cn(C4CC4)c3cc2Cl)[C@H](C)[C@@H](O[C@@H]2O[C@H](C)C[C@H](N(C)C)[C@H]2O)[C@](C)(OC)C[C@@H](C)/C(=N\OC)[C@H](C)[C@H]2OC(=O)O[C@@]21C | – | > 32 | 4 (≈ 3.62 µM) | > 256 | 16 (≈ 14.5 µM) | – | > 256 | 1 | >8 | 2 (≈ 1.81 µM) | – | 128 (≈ 116 µM) | 1 | 16 (≈ 14.5 µM) | > 32 | > 256 | 2 (≈ 1.81 µM) | 128 (≈ 116 µM) | – | –
8 | CC[C@H]1OC(=O)[C@H](C)[C@@H](OC(=O)CCNCCCc2ccc3c(c2)c(=O)c(C(=O)O)cn3C2CC2)[C@H](C)[C@@H](O[C@@H]2O[C@H](C)C[C@H](N(C)C)[C@H]2O)[C@](C)(OC)C[C@@H](C)/C(=N\OC)[C@H](C)[C@H]2OC(=O)O[C@@]21C | – | – | – | – | – | – | – | 1 | 1 | – | 2 | – | 2 | – | 16 (≈ 16.2 µM) | – | – | – | – | > 32
9 | CC[C@H]1OC(=O)[C@H](C)[C@@H](OC(=O)CCNCCNc2cc3c(=O)c(C(=O)O)cn(C4CC4)c3cc2Cl)[C@H](C)[C@@H](O[C@@H]2O[C@H](C)C[C@H](N(C)C)[C@H]2O)[C@](C)(OC)C[C@@H](C)/C(=N\OC)[C@H](C)[C@H]2OC(=O)O[C@@]21C | – | – | – | – | – | – | – | 1 | 2 | – | 1 | > 256 | 2 | – | > 32 | – | – | – | – | –
10 | CC[C@H]1OC(=O)[C@H](C)[C@@H](O[C@H]2C[C@@](C)(OC)[C@@H](O)[C@H](C)O2)[C@H](C)[C@@H](O[C@@H]2O[C@H](C)C[C@H](N(C)C)[C@H]2O)[C@](C)(OC)C[C@@H](C)C(=O)[C@H](C)[C@@H](O)[C@]1(C)O [CLARITHROMYCIN] | – | > 64 | 8 (≈ 10.7 µM) | – | 32 (≈ 42.8 µM) | >8 | – | 8 | >8 | 0.25 (≈ 0.334 µM) | 2 | > 256 | 4 | – | > 32 | – | 0.062 (≈ 0.0829 µM) | – | – | –
11 | CC[C@H]1OC(=O)[C@H](C)C(=O)[C@H](C)[C@@H](O[C@@H]2O[C@H](C)C[C@H](N(C)C)[C@H]2O)[C@](C)(OC)C[C@@H](C)C(=O)[C@H](C)[C@H]2N(CCCCn3cnc(-c4cccnc4)c3)C(=O)O[C@]12C [TELITHROMYCIN] | – | 0.125 (≈ 0.154 µM) | 0.031 (≈ 0.0382 µM) | 1 (≈ 1.23 µM) | 4 (≈ 4.93 µM) | 4 | – | 8 | 4 | 0.125 (≈ 0.154 µM) | – | > 256 | 4 | 0.5 (≈ 0.616 µM) | 0.125 (≈ 0.154 µM) | – | 0.031 (≈ 0.0382 µM) | – | 8 | 1 (≈ 1.23 µM)
12 | CC[C@H]1OC(=O)[C@H](C)[C@@H](OC(=O)CCN2CCN(c3cc4c(cc3F)c(=O)c(C(=O)O)cn4C3CC3)CC2)[C@H](C)[C@@H](O[C@@H]2O[C@H](C)C[C@H](N(C)C)[C@H]2O)[C@](C)(OC)C[C@@H](C)/C(=N\OCC#Cc2cncc3ccccc23)[C@H](C)[C@H]2OC(=O)O[C@@]21C | 1 (≈ 0.846 µM) | 64 (≈ 54.2 µM) | 32 (≈ 27.1 µM) | – | 32 (≈ 27.1 µM) | – | – | 2 | 2 | 4 (≈ 3.39 µM) | 1 | > 256 | 1 | 16 (≈ 13.5 µM) | > 32 | 1 (≈ 0.846 µM) | 4 (≈ 3.39 µM) | > 256 | – | –
